# From ChEMBL document CHEMBL4257493, “Discovery of 7-hydroxyaporphines as conformationally restricted ligands for beta-1 and beta-2 adrenergic receptors” (Medchemcomm, 2018)
# pIC50: −log10 of the molar value.
# Target: Beta-2 adrenergic receptor (Homo sapiens, UniProt P07550)
# Experiment: Displacement of [3H]-CGP-12177 from human beta2-adrenergic receptor
# Sequence of Beta-2 adrenergic receptor (P07550 whole entry): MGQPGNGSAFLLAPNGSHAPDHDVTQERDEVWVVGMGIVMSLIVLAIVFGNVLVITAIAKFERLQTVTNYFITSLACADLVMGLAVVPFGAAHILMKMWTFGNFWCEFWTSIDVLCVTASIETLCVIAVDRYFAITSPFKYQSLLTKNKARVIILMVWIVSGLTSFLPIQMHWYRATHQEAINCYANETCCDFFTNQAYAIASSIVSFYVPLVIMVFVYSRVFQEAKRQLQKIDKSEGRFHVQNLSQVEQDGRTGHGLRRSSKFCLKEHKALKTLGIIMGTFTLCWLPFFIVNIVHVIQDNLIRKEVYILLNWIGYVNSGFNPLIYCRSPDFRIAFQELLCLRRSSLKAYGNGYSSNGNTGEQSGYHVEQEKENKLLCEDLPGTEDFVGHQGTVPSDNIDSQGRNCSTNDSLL
row,SMILES,pIC50
1,COc1cc2c(cc1OC)[C@H]([C@H](O)c1ccccc1)NCC2,< 5.00
2,COc1ccc(CCNC[C@H](O)c2ccccc2)cc1OC,5.08
3,COc1cc2c3c(c1OC)-c1ccccc1[C@@H](O)[C@]3(C)NCC2 (relative stereo),7.70
4,COc1cc2c3c(c1OC)-c1ccccc1[C@H](O)[C@H]3NCC2,5.80
